We go through 25 molecules from US12509444B2, “Compounds and methods for CD73 modulation and indications therefor” (Plexxikon Inc., priority 2019, dated 2025).

The target of assay [1] is T1, Human CD73 (amino acid residues 27-549) (Homo sapiens, UniProt P21589).
T1 construct: Human CD73 (amino acid residues 27-549); His tag (N); made in house; host or cells: E. coli
T1 sequence (P21589 27-549): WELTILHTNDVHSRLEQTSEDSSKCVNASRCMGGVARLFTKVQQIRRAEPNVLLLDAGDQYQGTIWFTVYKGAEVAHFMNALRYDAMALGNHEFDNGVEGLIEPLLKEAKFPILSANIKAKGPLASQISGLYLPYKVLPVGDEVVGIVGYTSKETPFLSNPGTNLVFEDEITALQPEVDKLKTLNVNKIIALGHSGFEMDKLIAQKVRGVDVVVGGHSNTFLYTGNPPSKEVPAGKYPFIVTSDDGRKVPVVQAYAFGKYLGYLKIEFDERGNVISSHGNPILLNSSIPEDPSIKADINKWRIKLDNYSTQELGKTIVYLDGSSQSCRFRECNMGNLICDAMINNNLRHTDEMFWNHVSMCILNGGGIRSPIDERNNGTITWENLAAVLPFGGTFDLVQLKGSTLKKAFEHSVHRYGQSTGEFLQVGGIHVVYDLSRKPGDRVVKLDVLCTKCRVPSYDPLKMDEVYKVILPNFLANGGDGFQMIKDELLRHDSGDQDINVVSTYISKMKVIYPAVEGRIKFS
The assay is described as follows: CD73 enzymatic assay (luciferase-based indirect assay, CellTiter-Glo). Format: biochemical. As to conditions: 0.4 nM CD73, 150 μM AMP, 1 hour at room temperature. An outline of the steps: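 Residual AMP inhibits luciferase, so luminescence reports CD73 turnover; read with CellTiter-Glo 2.0 plus 1 μM final ATP, 30 min. Reaction used 0.4 nM N-His CD73 (27-549, E. coli), 150 μM AMP, HEPES pH 7.4 with Tween 20, 1 h at room temperature. IC50 fitted by nonlinear regression.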

The target of the next assay is T2, human CD73 (Homo sapiens, UniProt P21589).
T2 construct: expressed in transfected cells
T2 sequence (P21589 27-549): T1 sequence (P21589 27-549)
The assay is described as follows: Inhibitor activity against CD73 in cell based assay (CD73 expressing CHO-K1 cells). The conditions noted are these: CHO-K1 cells expressing human CD73, 150 μM AMP, 4 hours of incubation; read-out: CHO-K1 CELL VARIANT: CD73 IC50. An outline of the steps:
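Residual supernatant AMP was quantified via CellTiter-Glo luminescence (1 μM ATP added, 30 min, room temperature) after a 4 h exposure of human CD73-expressing CHO-K1 cells to 150 μM AMP plus compound, top final 10 μM, 8 points. IC50 came from nonlinear regression of percent inhibition.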

In general, IC50 refers to the concentration that gives 50% inhibition.

For the molecule `O=C(NC1CCN(C(=O)c2ccccc2F)CC1)O[C@@H]1CCN(c2cn[nH]c(=O)c2Cl)C1` [P-0402, (R)-1-(5-chloro-6-oxo-1,6-dihydropyridazin-4-yl)pyrrolidin-3-yl (1-(2-fluorobenzoyl)piperidin-4-yl)carbamate], the IC50 (in assay [1]; on human CD73) was 0.001 to 10 µM each time.
As to `O=C(NC1CCN(C(=O)c2ccccc2C(F)(F)F)CC1)O[C@@H]1CCN(c2cn[nH]c(=O)c2Cl)C1` [P-0403, (R)-1-(5-chloro-6-oxo-1,6-dihydropyridazin-4-yl)pyrrolidin-3-yl (1-(2-(trifluoromethyl)benzoyl)piperidin-4-yl)carbamate], the 50% inhibitory concentration (IC50) (in assay [1]; at human CD73) was 0.001 to 10 µM throughout.
Regarding `O=C(NC1CCN(C(=O)c2ccc(F)cc2)CC1)O[C@@H]1CCN(c2cn[nH]c(=O)c2Cl)C1` [P-0404, (R)-1-(5-chloro-6-oxo-1,6-dihydropyridazin-4-yl)pyrrolidin-3-yl (1-(4-fluorobenzoyl)piperidin-4-yl)carbamate], the IC50 (in assay [1]; at human CD73) was 0.001 to 10 µM throughout.
For `CC1(NC(=O)O[C@@H]2CCN(c3cn[nH]c(=O)c3Cl)C2)CCCC1` [P-0405, (R)-1-(5-chloro-6-oxo-1,6-dihydropyridazin-4-yl)pyrrolidin-3-yl (1-methylcyclopentyl)carbamate], the IC50 (in assay [1]; at human CD73) was 0.001 to 10 µM throughout.
Take `O=C(NC1(C2CCCC2)CC1)O[C@@H]1CCN(c2cn[nH]c(=O)c2Cl)C1` [P-0406, (R)-1-(5-chloro-6-oxo-1,6-dihydropyridazin-4-yl)pyrrolidin-3-yl (1-cyclopentylcyclopropyl) carbamate]: the concentration for half-maximal inhibition (IC50) (in assay [1]; on human CD73) was 0.001 to 10 µM each time.
Regarding `O=C1CC2CCC(C1)C2NC(=O)O[C@@H]1CCN(c2cn[nH]c(=O)c2Cl)C1` (stereo partly drawn) [P-0407, (R)-1-(5-chloro-6-oxo-1,6-dihydropyridazin-4-yl)pyrrolidin-3-yl (3-oxobicyclo[3.2.1]octan-8-yl)carbamate], the IC50 (in assay [1]; at human CD73) was 0.001 to 10 µM throughout.
With `CCC1(NC(=O)O[C@@H]2CCN(c3cn[nH]c(=O)c3Cl)C2)CCCC1` [P-0408, (R)-1-(5-chloro-6-oxo-1,6-dihydropyridazin-4-yl)pyrrolidin-3-yl (1-ethylcyclopentyl)carbamate], the half-inhibitory concentration (IC50) (in assay [1]; at human CD73) was 0.001 to 10 µM in each case.
With `CS(=O)(=O)N[C@H]1CC[C@H](NC(=O)O[C@@H]2CCN(c3cnn(CC(O)CO)c(=O)c3Cl)C2)CC1` (stereo partly drawn) [P-0409, (3R)-1-(5-chloro-1-(2,3-dihydroxypropyl)-6-oxo-1,6-dihydropyridazin-4-yl)pyrrolidin-3-yl ((1r,4R)-4-(methylsulfonamido)cyclohexyl)carbamate], the IC50 (in assay [1]; on human CD73) was 0.001 to 10 µM throughout.
As to `O=C(NC1(C2CCCCC2)CC1)O[C@@H]1CCN(c2cn[nH]c(=O)c2Cl)C1` [P-0410, (R)-1-(5-chloro-6-oxo-1,6-dihydropyridazin-4-yl)pyrrolidin-3-yl (1-cyclohexylcyclopropyl) carbamate], the IC50 (in assay [1]; at human CD73) was 0.001 to 10 µM in each case.
In the case of `N#CCC1(NC(=O)O[C@@H]2CCN(c3cn[nH]c(=O)c3Cl)C2)CCCC1` [P-0411, (R)-1-(5-chloro-6-oxo-1,6-dihydropyridazin-4-yl)pyrrolidin-3-yl (1-(cyanomethyl)cyclopentyl) carbamate], the half-maximal inhibitory concentration (IC50) (in assay [1]; on human CD73) was 0.001 to 10 µM in each case.
Consider `Cc1csc(C2(NC(=O)O[C@@H]3CCN(c4cn[nH]c(=O)c4Cl)C3)CCCC2)n1` [P-0412, (R)-1-(5-chloro-6-oxo-1,6-dihydropyridazin-4-yl)pyrrolidin-3-yl (1-(4-methylthiazol-2-yl)cyclopentyl)carbamate], for which the 50% inhibitory concentration (IC50) (in assay [1]; on human CD73) was 0.001 to 10 µM each time.
Take `CC1(C)CCCCC1NC(=O)O[C@@H]1CCN(c2cn[nH]c(=O)c2Cl)C1` (stereo partly drawn) [P-0413, (R)-1-(5-chloro-6-oxo-1,6-dihydropyridazin-4-yl)pyrrolidin-3-yl (2,2-dimethylcyclohexyl)carbamate]: the IC50 (in assay [1]; on human CD73) was 0.001 to 10 µM each time.
With `NCCn1ncc(N2CC[C@@H](OC(=O)NC3CCC(F)(F)CC3)C2)c(Cl)c1=O` [P-0414, (R)-1-(1-(2-aminoethyl)-5-chloro-6-oxo-1,6-dihydropyridazin-4-yl)pyrrolidin-3-yl (4,4-difluorocyclohexyl)carbamate], the IC50 (in assay [1]; at human CD73) was 0.001 to 10 µM throughout.
On to `NCCn1ncc(N2CC[C@@H](OC(=O)NC3CCCC3)C2)c(Cl)c1=O` [P-0415, (R)-1-(1-(2-aminoethyl)-5-chloro-6-oxo-1,6-dihydropyridazin-4-yl)pyrrolidin-3-yl cyclopentylcarbamate], for which the IC50 (in assay [1]; at human CD73) was 0.001 to 10 µM each time.
On to `O=C(NC1CCN(C(=O)c2cccnc2)CC1)O[C@@H]1CCN(c2cn[nH]c(=O)c2Cl)C1` [P-0416, (R)-1-(5-chloro-6-oxo-1,6-dihydropyridazin-4-yl)pyrrolidin-3-yl (1-nicotinoylpiperidin-4-yl)carbamate], for which the concentration for half-maximal inhibition (IC50) (in assay [1]; at human CD73) was 0.001 to 10 µM each time.
As for `O=C(NC1CCN(C(=O)c2cccnc2Cl)CC1)O[C@@H]1CCN(c2cn[nH]c(=O)c2Cl)C1` [P-0417, (R)-1-(5-chloro-6-oxo-1,6-dihydropyridazin-4-yl)pyrrolidin-3-yl (1-(2-chloronicotinoyl)piperidin-4-yl)carbamate], the IC50 (in assay [1]; at human CD73) was 0.001 to 10 µM each time.
With `O=C(NC1CCN(C(=O)c2ccc(Cl)nc2)CC1)O[C@@H]1CCN(c2cn[nH]c(=O)c2Cl)C1` [P-0418, (R)-1-(5-chloro-6-oxo-1,6-dihydropyridazin-4-yl)pyrrolidin-3-yl (1-(6-chloronicotinoyl)piperidin-4-yl)carbamate], the IC50 (in assay [1]; on human CD73) was 0.001 to 10 µM each time.
Take `O=C(NC1CCN(C(=O)c2ccc(C(F)(F)F)nc2)CC1)O[C@@H]1CCN(c2cn[nH]c(=O)c2Cl)C1` [P-0419, (R)-1-(5-chloro-6-oxo-1,6-dihydropyridazin-4-yl)pyrrolidin-3-yl (1-(6-(trifluoromethyl)nicotinoyl)piperidin-4-yl)carbamate]: the IC50 (in assay [1]; on human CD73) was 0.001 to 10 µM throughout.
For the molecule `O=C(NC1CCN(C(=O)Cc2ccccc2Br)CC1)O[C@@H]1CCN(c2cn[nH]c(=O)c2Cl)C1` [P-0420, (R)-1-(5-chloro-6-oxo-1,6-dihydropyridazin-4-yl)pyrrolidin-3-yl (1-(2-(2-bromophenyl)acetyl)piperidin-4-yl)carbamate], the IC50 (in assay [1]; at human CD73) was 0.001 to 10 µM in each case.
`O=C(NC1CCN(C(=O)Cc2ccccc2Cl)CC1)O[C@@H]1CCN(c2cn[nH]c(=O)c2Cl)C1` [P-0421, (R)-1-(5-chloro-6-oxo-1,6-dihydropyridazin-4-yl)pyrrolidin-3-yl (1-(2-(2-chlorophenyl)acetyl)piperidin-4-yl)carbamate]: the half-maximal inhibitory concentration (IC50) (in assay [1]; on human CD73) was 0.001 to 10 µM each time.
`O=C(NC1CCN(C(=O)Cc2c(F)cccc2Cl)CC1)O[C@@H]1CCN(c2cn[nH]c(=O)c2Cl)C1` [P-0422, (R)-1-(5-chloro-6-oxo-1,6-dihydropyridazin-4-yl)pyrrolidin-3-yl (1-(2-(2-chloro-6-fluorophenyl)acetyl)piperidin-4-yl)carbamate]: the IC50 (in assay [1]; at human CD73) was 0.001 to 10 µM in each case.
With `O=C(NC1C2CCC1CC(O)C2)O[C@@H]1CCN(c2cn[nH]c(=O)c2Cl)C1` (stereo partly drawn) [P-0423, (R)-1-(5-chloro-6-oxo-1,6-dihydropyridazin-4-yl)pyrrolidin-3-yl (3-hydroxybicyclo[3.2.1]octan-8-yl)carbamate], the IC50 (in assay [1]; on human CD73) was 0.001 to 10 µM throughout.
With `O=C(NC1CCCC(F)(F)C1)O[C@@H]1CCN(c2cn[nH]c(=O)c2Cl)C1` (stereo partly drawn) [P-0424, (R)-1-(5-chloro-6-oxo-1,6-dihydropyridazin-4-yl)pyrrolidin-3-yl (3,3-difluorocyclohexyl)carbamate], the IC50 (in assay [1]; on human CD73) was 0.001 to 10 µM in each case.
Consider `CC1CCCC(NC(=O)O[C@@H]2CCN(c3cn[nH]c(=O)c3Cl)C2)C1` (stereo partly drawn) [P-0425, (R)-1-(5-chloro-6-oxo-1,6-dihydropyridazin-4-yl)pyrrolidin-3-yl (3-methylcyclohexyl)carbamate], for which the 50% inhibitory concentration (IC50) (in assay [1]; at human CD73) was 0.001 to 10 µM in each case.
For `O=C(NC1CCCC12CC2)O[C@@H]1CCN(c2cn[nH]c(=O)c2Cl)C1` (stereo partly drawn) [P-0426, (R)-1-(5-chloro-6-oxo-1,6-dihydropyridazin-4-yl)pyrrolidin-3-yl spiro[2.4]heptan-4-ylcarbamate], the IC50 (in assay [1]; at human CD73) was 0.001 to 10 µM throughout.
